Results as given in ChEMBL document CHEMBL5696442, “Discovery of type II inhibitors of TGFβ-activated kinase 1 (TAK1) and mitogen-activated protein kinase kinase kinase kinase 2 (MAP4K2)” (J Med Chem, 2015).

How the values were obtained:
[1] = target: Ribosomal protein S6 kinase alpha-3 (Homo sapiens) (UniProt P51812); test: Inhibition of RSK2 domain2 Lys2 labeling site harbouring TVEYLHAQGVVHRDLKPSNILYVDESGNPESIR in human Huh-7 cells at 1 uM by KiNativ Profiling analysis relative to control; assay type: cell-based
[2] = target: T1, NUAK family SNF1-like kinase 1 (Homo sapiens) (UniProt O60285); test: Inhibition of NuaK1 Lys2 labeling site in human Huh-7 cell lysate at 1 uM by KiNativ Profiling analysis relative to control; assay type: subcellular
T1 sequence (whole entry): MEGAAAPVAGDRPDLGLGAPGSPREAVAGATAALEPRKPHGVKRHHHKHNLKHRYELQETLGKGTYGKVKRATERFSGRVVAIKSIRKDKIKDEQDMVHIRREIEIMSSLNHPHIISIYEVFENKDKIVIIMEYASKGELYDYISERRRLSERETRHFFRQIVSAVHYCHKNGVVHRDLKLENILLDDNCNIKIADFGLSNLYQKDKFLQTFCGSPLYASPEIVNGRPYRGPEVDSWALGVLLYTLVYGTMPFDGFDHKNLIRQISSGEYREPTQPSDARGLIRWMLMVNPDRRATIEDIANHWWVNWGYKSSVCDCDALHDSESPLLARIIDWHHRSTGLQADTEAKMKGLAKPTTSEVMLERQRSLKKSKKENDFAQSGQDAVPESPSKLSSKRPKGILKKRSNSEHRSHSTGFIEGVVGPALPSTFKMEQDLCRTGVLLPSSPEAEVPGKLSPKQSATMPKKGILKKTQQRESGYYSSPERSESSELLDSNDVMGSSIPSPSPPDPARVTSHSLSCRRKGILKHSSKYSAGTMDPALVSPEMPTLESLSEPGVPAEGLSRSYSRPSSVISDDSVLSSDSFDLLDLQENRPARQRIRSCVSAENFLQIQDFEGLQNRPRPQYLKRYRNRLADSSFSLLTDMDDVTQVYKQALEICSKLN

[3] = target: Serine/threonine-protein kinase Nek4 (Homo sapiens) (UniProt P51957); test: Inhibition of NEK4 Lys2 labeling site in human Huh-7 cells at 1 uM by KiNativ Profiling analysis relative to control; assay type: cell-based
[4] = tested on: Tyrosine-protein kinase ABL1 (Homo sapiens), P00519 [F317I]; test: Inhibition of phosphorylated ABL1 F317I mutant (unknown origin) at 1 uM by Ambit Kinomescan binding assay relative to control; values are per cent of control
[5] = target: Mitogen-activated protein kinase kinase kinase kinase 3 (Homo sapiens) (UniProt Q8IVH8); test: Inhibition of MAP4K3 (unknown origin) at 1 uM by Ambit Kinomescan binding assay relative to control
[6] = target: Microtubule-associated serine/threonine-protein kinase 1 (Homo sapiens) (UniProt Q9Y2H9); test: Inhibition of MAST1 Lys2 labeling site in human A-375 cells at 5 uM by KiNativ Profiling analysis relative to control
[7] = target: T2, Mitogen-activated protein kinase kinase kinase 2 (Homo sapiens) (UniProt Q9Y2U5); test: Inhibition of MAP3K2 K1 labeling site in human Huh-7 cells at 10 uM by KiNativ Profiling analysis relative to control; assay type: cell-based
T2 sequence (whole entry): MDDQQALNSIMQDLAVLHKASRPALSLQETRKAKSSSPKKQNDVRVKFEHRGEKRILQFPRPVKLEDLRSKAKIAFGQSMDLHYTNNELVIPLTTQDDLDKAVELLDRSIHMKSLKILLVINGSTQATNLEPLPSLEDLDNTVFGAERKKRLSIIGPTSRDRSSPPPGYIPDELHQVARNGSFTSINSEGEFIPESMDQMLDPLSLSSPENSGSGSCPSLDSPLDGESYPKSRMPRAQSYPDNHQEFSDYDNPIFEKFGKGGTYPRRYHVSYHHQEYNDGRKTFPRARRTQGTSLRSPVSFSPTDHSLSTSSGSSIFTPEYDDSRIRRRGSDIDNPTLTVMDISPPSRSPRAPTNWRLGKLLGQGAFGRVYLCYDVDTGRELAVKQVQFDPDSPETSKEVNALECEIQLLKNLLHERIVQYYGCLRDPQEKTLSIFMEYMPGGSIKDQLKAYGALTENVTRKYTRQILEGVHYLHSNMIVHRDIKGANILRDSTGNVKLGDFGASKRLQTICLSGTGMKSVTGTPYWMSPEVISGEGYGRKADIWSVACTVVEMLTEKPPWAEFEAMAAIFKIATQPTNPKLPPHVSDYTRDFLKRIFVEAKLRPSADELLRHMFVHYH

[8] = target: Serine/threonine-protein kinase SIK1 (Homo sapiens) (UniProt P57059); test: Inhibition of SIK1 K2 labeling site in human Huh-7 cells at 10 uM by KiNativ Profiling analysis relative to control; assay type: cell-based
[9] = target: T3, Eukaryotic elongation factor 2 kinase (Homo sapiens) (UniProt O00418); test: Inhibition of eEF2K ATP labeling site harbouring YIKYNSNSGFVR in human A-375 cells at 0.05 uM by KiNativ Profiling analysis relative to control; assay type: cell-based
T3 sequence (whole entry): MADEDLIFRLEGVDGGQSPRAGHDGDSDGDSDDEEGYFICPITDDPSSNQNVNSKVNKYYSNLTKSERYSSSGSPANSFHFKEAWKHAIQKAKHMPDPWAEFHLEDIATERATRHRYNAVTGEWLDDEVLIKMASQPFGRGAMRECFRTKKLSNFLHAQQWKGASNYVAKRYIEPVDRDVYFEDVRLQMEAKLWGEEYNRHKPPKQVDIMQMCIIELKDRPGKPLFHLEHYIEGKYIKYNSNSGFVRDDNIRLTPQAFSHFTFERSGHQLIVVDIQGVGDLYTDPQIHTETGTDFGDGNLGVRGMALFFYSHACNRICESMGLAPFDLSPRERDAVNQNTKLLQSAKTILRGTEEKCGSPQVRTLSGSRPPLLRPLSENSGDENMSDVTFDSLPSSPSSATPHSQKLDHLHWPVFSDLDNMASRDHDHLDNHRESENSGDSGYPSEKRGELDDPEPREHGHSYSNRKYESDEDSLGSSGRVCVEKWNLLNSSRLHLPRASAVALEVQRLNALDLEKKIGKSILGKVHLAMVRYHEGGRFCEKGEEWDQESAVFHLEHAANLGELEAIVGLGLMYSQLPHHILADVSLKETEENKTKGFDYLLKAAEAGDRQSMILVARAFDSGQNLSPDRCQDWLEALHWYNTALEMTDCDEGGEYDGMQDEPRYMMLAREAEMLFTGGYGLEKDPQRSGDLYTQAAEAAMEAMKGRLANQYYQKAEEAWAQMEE

Sequence of Ribosomal protein S6 kinase alpha-3 (Homo sapiens) (P51812 whole entry, the tested form may be a part): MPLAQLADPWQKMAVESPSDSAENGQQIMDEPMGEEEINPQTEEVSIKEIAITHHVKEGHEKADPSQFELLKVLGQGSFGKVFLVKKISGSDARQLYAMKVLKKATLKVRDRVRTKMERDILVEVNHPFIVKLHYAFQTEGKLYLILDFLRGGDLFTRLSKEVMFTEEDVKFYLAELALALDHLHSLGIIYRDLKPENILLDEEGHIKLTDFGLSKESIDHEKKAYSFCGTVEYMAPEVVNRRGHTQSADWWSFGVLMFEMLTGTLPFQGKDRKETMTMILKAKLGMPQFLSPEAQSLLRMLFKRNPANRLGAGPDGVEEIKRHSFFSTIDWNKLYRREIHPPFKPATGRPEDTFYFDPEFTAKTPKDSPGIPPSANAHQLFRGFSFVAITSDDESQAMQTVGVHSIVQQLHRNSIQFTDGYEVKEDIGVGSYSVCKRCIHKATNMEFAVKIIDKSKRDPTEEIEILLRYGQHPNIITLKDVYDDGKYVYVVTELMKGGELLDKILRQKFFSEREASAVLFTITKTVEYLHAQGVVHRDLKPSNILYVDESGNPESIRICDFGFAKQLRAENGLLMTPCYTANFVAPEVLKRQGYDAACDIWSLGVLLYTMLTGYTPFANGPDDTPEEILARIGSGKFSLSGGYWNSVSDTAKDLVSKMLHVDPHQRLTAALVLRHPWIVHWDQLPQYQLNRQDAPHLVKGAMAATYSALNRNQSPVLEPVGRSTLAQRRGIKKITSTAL
Sequence of Tyrosine-protein kinase ABL1 (Homo sapiens), P00519 [F317I] (P00519 whole entry F317I): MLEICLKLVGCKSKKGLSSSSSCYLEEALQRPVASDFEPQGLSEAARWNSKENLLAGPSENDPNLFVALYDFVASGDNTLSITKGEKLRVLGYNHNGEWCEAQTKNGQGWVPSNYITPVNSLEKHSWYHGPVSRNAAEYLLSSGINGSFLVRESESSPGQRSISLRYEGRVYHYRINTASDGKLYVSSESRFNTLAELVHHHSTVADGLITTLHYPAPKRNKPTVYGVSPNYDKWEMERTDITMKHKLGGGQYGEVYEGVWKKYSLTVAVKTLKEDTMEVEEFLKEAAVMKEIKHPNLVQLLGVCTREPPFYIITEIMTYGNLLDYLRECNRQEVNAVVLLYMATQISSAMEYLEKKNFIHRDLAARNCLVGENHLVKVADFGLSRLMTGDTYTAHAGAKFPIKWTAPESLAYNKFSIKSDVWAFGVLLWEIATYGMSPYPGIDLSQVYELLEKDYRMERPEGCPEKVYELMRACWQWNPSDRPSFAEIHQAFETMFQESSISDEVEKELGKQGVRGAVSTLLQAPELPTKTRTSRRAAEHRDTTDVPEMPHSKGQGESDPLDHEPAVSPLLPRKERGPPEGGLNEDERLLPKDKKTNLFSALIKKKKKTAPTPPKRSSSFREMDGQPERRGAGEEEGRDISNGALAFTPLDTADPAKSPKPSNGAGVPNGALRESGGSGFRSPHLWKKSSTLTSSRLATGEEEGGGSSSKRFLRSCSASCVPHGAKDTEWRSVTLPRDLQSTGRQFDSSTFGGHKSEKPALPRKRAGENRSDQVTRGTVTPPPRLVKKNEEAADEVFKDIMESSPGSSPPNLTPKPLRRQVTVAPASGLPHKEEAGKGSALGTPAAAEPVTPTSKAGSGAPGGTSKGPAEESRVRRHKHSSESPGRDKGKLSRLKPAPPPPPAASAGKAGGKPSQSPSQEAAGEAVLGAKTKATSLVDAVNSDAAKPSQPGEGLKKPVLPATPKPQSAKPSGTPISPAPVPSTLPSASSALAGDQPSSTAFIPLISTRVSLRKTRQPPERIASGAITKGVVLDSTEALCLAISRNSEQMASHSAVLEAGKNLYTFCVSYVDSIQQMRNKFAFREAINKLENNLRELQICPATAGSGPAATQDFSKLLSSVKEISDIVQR
Sequence of Mitogen-activated protein kinase kinase kinase kinase 3 (Homo sapiens) (Q8IVH8 whole entry): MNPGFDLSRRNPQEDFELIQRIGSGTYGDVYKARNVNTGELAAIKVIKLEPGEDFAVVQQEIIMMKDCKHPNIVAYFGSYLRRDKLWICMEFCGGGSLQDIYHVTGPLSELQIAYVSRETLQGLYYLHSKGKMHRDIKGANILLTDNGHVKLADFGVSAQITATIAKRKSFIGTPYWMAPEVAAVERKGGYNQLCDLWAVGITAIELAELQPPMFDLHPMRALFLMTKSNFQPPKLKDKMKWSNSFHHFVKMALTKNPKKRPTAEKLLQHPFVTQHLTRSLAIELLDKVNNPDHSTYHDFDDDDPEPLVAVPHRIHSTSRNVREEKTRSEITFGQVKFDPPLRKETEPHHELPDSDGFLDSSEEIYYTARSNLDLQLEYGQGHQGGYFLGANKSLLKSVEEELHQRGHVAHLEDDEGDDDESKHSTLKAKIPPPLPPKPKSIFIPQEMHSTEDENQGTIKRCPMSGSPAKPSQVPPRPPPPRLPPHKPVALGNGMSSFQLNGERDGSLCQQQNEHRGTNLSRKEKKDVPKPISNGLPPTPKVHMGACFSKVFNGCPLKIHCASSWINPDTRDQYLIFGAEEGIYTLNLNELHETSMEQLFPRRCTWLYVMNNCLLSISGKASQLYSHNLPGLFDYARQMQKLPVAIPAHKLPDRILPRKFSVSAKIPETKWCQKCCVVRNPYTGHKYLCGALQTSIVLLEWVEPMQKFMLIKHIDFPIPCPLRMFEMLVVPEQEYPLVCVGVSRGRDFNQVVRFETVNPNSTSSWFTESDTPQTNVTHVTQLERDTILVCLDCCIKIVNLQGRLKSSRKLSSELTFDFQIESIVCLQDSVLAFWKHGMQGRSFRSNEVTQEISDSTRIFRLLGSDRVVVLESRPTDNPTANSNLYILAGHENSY
Sequence of Serine/threonine-protein kinase Nek4 (Homo sapiens) (P51957 whole entry, looked up): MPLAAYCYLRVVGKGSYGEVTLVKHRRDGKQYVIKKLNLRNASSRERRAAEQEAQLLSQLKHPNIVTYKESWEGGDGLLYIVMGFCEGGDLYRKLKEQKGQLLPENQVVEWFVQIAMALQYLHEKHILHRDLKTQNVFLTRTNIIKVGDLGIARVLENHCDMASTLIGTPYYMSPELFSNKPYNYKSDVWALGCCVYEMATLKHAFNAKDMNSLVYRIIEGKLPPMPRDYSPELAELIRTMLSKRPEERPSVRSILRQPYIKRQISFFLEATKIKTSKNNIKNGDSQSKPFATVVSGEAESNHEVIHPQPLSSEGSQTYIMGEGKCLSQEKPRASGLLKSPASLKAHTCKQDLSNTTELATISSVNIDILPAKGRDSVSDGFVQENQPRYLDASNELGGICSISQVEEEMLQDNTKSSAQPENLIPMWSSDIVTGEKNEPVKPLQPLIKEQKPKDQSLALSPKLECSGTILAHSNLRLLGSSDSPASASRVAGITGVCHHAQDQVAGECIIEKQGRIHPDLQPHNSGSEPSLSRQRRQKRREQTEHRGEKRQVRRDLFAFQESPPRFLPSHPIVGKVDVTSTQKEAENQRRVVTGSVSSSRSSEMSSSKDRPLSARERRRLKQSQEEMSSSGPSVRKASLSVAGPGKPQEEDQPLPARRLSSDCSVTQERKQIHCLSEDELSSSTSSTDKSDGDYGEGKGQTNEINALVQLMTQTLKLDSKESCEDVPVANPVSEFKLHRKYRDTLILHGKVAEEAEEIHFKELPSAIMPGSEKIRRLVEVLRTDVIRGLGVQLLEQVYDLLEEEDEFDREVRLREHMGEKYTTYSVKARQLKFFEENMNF
Sequence of Serine/threonine-protein kinase SIK1 (Homo sapiens) (P57059 whole entry): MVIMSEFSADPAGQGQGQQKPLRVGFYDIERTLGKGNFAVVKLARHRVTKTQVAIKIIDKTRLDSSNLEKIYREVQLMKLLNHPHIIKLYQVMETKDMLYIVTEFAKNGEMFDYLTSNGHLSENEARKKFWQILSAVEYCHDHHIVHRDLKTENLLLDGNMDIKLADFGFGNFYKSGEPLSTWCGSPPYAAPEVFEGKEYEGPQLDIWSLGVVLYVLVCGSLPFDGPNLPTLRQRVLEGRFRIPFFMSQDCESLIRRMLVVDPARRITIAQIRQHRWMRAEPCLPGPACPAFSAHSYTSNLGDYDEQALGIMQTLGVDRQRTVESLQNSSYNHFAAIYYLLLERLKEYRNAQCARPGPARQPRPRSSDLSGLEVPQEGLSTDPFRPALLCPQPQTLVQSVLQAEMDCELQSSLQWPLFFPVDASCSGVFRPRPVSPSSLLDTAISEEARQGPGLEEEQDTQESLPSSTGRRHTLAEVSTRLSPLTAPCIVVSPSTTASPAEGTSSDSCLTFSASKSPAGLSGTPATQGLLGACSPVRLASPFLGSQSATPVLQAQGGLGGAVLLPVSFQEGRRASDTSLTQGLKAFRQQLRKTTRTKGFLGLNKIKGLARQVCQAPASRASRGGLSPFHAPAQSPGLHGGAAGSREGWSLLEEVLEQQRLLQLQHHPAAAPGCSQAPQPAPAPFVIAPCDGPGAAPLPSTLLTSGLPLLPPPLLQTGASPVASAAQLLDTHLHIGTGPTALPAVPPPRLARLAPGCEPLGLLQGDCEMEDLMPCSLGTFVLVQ

CNc1cc(Oc2cc(C(=O)Nc3cc(N4CCN(C)CC4)cc(C(F)(F)F)c3)ccc2C)ncn1
inhibition [1]: 11.5%
inhibition [2]: -8.6%
inhibition [3]: 43.4%

CCN1CCN(Cc2ccc(NC(=O)c3ccc(C)c(/C=C/c4cnc5[nH]ccc5c4OC)c3)cc2C(F)(F)F)CC1
percent of control [4]: 22%
inhibition [5]: 20%

CCN1CCN(Cc2ccc(NC(=O)c3ccc(C)c(Oc4ccnc5[nH]ccc45)c3)cc2C(F)(F)F)CC1
inhibition [6]: -6.1%
inhibition [7]: 31.6%
inhibition [8]: 6.6%
inhibition [9]: 12.7%
